# Data reported in BindingDB's records for doi:10.7270/Q2K935WV (Nmmlsc, 2008).
# Where a name gives a salt, the structure may show the parent alone.
# Molecular target: Isoform Bcl-X(L) of Bcl-2-like protein 1 (Bcl-xL) (Homo sapiens, UniProt Q07817)
# Test: Bim-Bcl-XL interaction inhibitors, potency, dose response, biochemical, multiplexed, bead flow cytometry, human Bcl-XL (AID 1322)
# Conditions: inactive by the depositor's call; pH 7.4; 4 °C
# Chain of Isoform Bcl-X(L) of Bcl-2-like protein 1 (Bcl-xL) (Q07817 whole entry G70A, canonical isoform): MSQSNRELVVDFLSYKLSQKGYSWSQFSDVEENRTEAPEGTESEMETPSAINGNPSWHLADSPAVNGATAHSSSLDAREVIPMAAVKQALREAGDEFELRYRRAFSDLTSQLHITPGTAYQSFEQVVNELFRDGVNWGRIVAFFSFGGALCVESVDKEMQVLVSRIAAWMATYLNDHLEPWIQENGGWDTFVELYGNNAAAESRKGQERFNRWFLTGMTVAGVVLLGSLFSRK
row,EC50 [µM],SMILES
1,7.92,CCN(CC)c1ccc(-c2nn3c(-c4cccnc4)nnc3s2)cc1
2,3.43,CCOCCCNc1nc(S)nc2cc(OC)c(OC)cc12
3,7.43,COCCNc1[nH]c(=S)nc2cc(OC)c(OC)cc12
4,1,CN1CCN(C2=C(Cl)C(=O)C(c3cnc(N4CCCCC4)s3)=C(Cl)C2=O)CC1
5,2.97,CCOC(=O)c1ccc(Nc2nc(C(=O)OCC)nc3ccccc23)cc1
6,29.5,CCN1C(=O)/C(=C/C=C2\C=CN(CC)c3ccccc32)SC1=S
7,5.19,Cc1ccc(-c2ccc(/C=C/C(=O)c3ccccc3)o2)cc1
8,20,O=S1(=O)N=C(N(CCO)N=C/C=C/c2ccccc2)c2ccccc21
9,12.8,COc1ccc(-n2c(=O)c3ccccc3c3ccccc3c2=O)c(OC)c1
10,2.12,CCOC(=O)c1c2c3c(cccc3[nH]c1=O)C(=O)c1ccccc1-2
11,10.9,COc1cc2nc(=S)n(CCCN3CCOCC3)c(N)c2cc1OC
12,2.14,Cc1ccc(C(=O)/C=C/c2ccc(-c3ccc(C)cc3)o2)cc1 [1-p-Tolyl-3-(5-p-tolyl-furan-2-yl)-propenone]
13,17.9,"Cc1cc(OCc2cn3cccnc3n2)ccc1Cl [2-[(4-chloranyl-3-methyl-phenoxy)methyl]imidazo[1,2-a]pyrimidine]"
14,11.3,"O=C(CSc1ccc2nnc(-c3ccccn3)n2n1)Nc1nccs1 [2-[[3-(2-pyridinyl)-[1,2,4]triazolo[4,3-b]pyridazin-6-yl]thio]-N-(2-thiazolyl)acetamide]"
15,19.3,"O=C(/C=C/c1ccccc1Cl)c1ccccc(=O)c1O [3-[(E)-3-(2-chlorophenyl)prop-2-enoyl]-2-oxidanyl-cyclohepta-2,4,6-trien-1-one]"
16,3.43,"NC(=O)c1sc2nc3c(c(-c4ccco4)c2c1N)CCC3 [3-amino-4-(2-furyl)-6,7-dihydro-5H-cyclopenta[b]thieno[3,2-e]pyridine-2-carboxamide]"
17,7.17,"c1cncc(-c2nnc3n2N=C(c2cccs2)CS3)c1 [3-pyridin-3-yl-6-thiophen-2-yl-7H-[1,2,4]triazolo[3,4-b][1,3,4]thiadiazine]"
18,10.1,"Cc1nc2ncccn2c1-c1csc(Nc2ccccc2)n1 [4-(2-methyl-3-imidazo[1,2-a]pyrimidinyl)-N-phenyl-2-thiazolamine]"
19,5.09,"Cc1cc(C)nc(SCc2cc(=O)c(OC(=O)c3ccc(Cl)c([N+](=O)[O-])c3)co2)n1 [4-chloro-3-nitrobenzoic acid [6-[[(4,6-dimethyl-2-pyrimidinyl)thio]methyl]-4-oxo-3-pyranyl] ester]"
20,28.3,O=C(N[N-][CH+]c1ccc(-c2ccccc2[N+](=O)[O-])o1)c1cncc(Br)c1 [5-bromo-N-[[5-(2-nitrophenyl)furan-2-yl]methylideneamino]pyridine-3-carboxamide]
21,4.65,"COc1cc2nc(=S)[nH]c(NCC3CCCO3)c2cc1OC (stereo unspecified) [6,7-dimethoxy-4-(2-oxolanylmethylamino)-1H-quinazoline-2-thione]"
22,26.5,"CCOc1ccccc1-n1c(=O)c2ccccc2c2ccccc2c1=O [6-(2-ethoxyphenyl)-5H-dibenzo[c,e]azepine-5,7(6H)-dione]"
23,2.85,"COc1ccc(C2=Nn3c(nnc3-c3ccco3)SC2)cc1OC [6-(3,4-Dimethoxy-phenyl)-3-furan-2-yl-7H-[1,2,4]triazolo[3,4-b][1,3,4]thiadiazine]"
24,14.3,"CCOc1ccc(C2=Nn3c(nnc3-c3ccccn3)SC2)cc1 [6-(4-ethoxyphenyl)-3-(2-pyridinyl)-7H-[1,2,4]triazolo[3,4-b][1,3,4]thiadiazine]"
25,13.7,"O=c1nc2c(O)cccn2c2c1c(O)nc1ccccc12 [9-Hydroxy-5H-5,8,12a-triaza-benzo[c]phenanthrene-6,7-dione]"
26,2.82,"CN(N=C/C=C/c1ccccc1)C1=NS(=O)(=O)c2ccccc21 [(1E,2E)-3-phenylacrylaldehyde (1,1-dioxido-1,2-benzisothiazol-3-yl)(methyl)hydrazone]"

row,EC50 [µM],SMILES
1,3.02,"COc1cc(/C=C2\CC/C(=C\c3cc(OC)c(O)c(OC)c3)C2=O)cc(OC)c1O [(2E,5E)-2,5-bis[(4-hydroxy-3,5-dimethoxyphenyl)methylidene]cyclopentan-1-one]"
2,1.55,"O=C1/C(=C\c2ccc(-c3ccccc3Cl)o2)SC(=S)N1CC1CCCO1 (stereo unspecified) [(5E)-5-[[5-(2-chlorophenyl)furan-2-yl]methylidene]-3-(oxolan-2-ylmethyl)-2-sulfanylidene-1,3-thiazolidin-4-one]"
3,78.6,Cc1ccc(-c2ccc(/C=C3\SC(N4CCOCC4)=NC3=O)o2)cc1 [(5Z)-5-[[5-(4-methylphenyl)-2-furanyl]methylidene]-2-(4-morpholinyl)-4-thiazolone]
4,10.2,O=C1c2ccccc2-c2onc3ccc(NCc4ccco4)c1c23 [MLS000080234]
5,11.7,Cc1cc(-c2nnc3n2N=C(c2ccc(-c4ccccc4)cc2)CS3)[nH]n1 [MLS000082991]
6,26.5,Cc1cc2n(c1)CCn1c(C)ccc1-2 [MLS000104384]
7,25.3,CCCCNC(=O)c1ccc2nc(-c3ccco3)c(-c3ccco3)nc2c1 [MLS000119995]
8,18.1,Clc1nc(NCc2cccnc2)nc(N2CCOCC2)n1 [MLS000121154]
9,0.51,COc1cc2nc(=S)[nH]c(NCCc3ccc(S(N)(=O)=O)cc3)c2cc1OC [MLS000674601]
10,18.7,COc1ccc(C)cc1-n1c(=O)c2ccccc2c2ccccc2c1=O [MLS000682999]
11,19.6,Cc1ccnc(SCc2cc(=O)c(OC(=O)c3ccc(Cl)c([N+](=O)[O-])c3)co2)n1 [MLS000696790]
12,5.86,CCOC(=O)c1c(O)nc2ccc(Cl)c3c2c1-c1ccccc1C3=O [MLS000704595]
13,46.1,Cc1ccc(OCc2cn3cccnc3n2)cc1 [MLS000723172]
14,6.98,"c1ccc(Nc2cccc(Nc3ccccc3)n2)cc1 [N,N'-diphenyl-2,6-pyridinediamine]"
15,23.1,"CC(=O)c1ccc(NC(=O)c2ccc3nc(-c4ccco4)c(-c4ccco4)nc3c2)cc1 [N-(4-acetylphenyl)-2,3-di-2-furyl-6-quinoxalinecarboxamide]"
16,20.7,"COc1ccc(CCNC(=O)c2ccc3nc(-c4ccco4)c(-c4ccco4)nc3c2)cc1OC [N-[2-(3,4-dimethoxyphenyl)ethyl]-2,3-di-2-furylquinoxaline-6-carboxamide]"
17,50.4,"Cc1cccc(C(=O)/N=c2\c(C#N)cc3c(=O)n4cccc(C)c4nc3n2Cc2ccco2)c1 [N-[3-cyano-1-(furan-2-ylmethyl)-10-methyl-5-oxodipyrido[3,4-c:1',2'-f]pyrimidin-2-ylidene]-3-methylbenzamide]"
18,3.65,COCCCNc1nc(S)nc2cc(OC)c(OC)cc12 [SMR000026607]
19,20.6,CSc1nnc2c3cc(C)ccc3n(Cc3ccccc3)c2n1 [SMR000046397]
20,21.9,c1ccc(-c2nc(N3CCCCCC3)c3ccccc3n2)nc1 [SMR000046752]
21,11.7,C#CCn1cc(C=C2C(=O)c3ccccc3C2=O)c2ccccc21 [SMR000196125]
22,19.2,CN(N=Cc1cccnc1)C1=NS(=O)(=O)c2ccccc21 [SMR000207578]
23,17.6,COc1ccc(OC)c(-n2c(=O)c3ccccc3c3ccccc3c2=O)c1 [SMR000236434]
24,13.1,O=C1c2ccccc2-c2onc3ccc(N4CCCC4)c1c23 [SMR000279741]
25,22.2,O=C(CSc1ccc2nnc(-c3ccncc3)n2n1)Nc1nccs1 [SMR000320332]
26,1.14,O=C(Nc1cccc(Cl)c1)Nc1ccnc(-c2cccnc2)n1 [SMR000337179]

row,SMILES,EC50 [µM]
1,CCOCCCn1c(N)c(C(=O)Nc2sc3c(c2C(=O)OC)CCCC3)c2nc3ccccc3nc21,1.97
2,COCCCn1c(N)c(C(=O)Nc2sc3c(c2C(=O)OC)CCCC3)c2nc3ccccc3nc21 [MLS000595323],3.32

# Same assay, conditions: pH 7.4; 4 °C
row,EC50 [µM],SMILES
1,18.6,CN1CCc2cccc3c2[C@@H]1Cc1ccc(O)c(O)c1-3
2,0.57,COc1cccc(CN=Nc2nn3cnnc3c3ccccc23)c1O
3,19.2,CCC(/C=C1\Sc2ccc(OC)cc2N1CCO)=C\c1sc2ccc(OC)cc2[n+]1CCO
4,0.39,Cc1nc2ncccn2c1-c1csc(Nc2ccc(O)cc2)n1
5,2.43,"COc1cc(CN=Nc2nn3cnnc3c3ccccc23)ccc1O [(4E)-2-methoxy-4-[[2-([1,2,4]triazolo[3,4-a]phthalazin-6-yl)hydrazinyl]methylidene]cyclohexa-2,5-dien-1-one]"
6,9.36,O=C(/C=C\c1ccc(-c2ccccc2)o1)c1ccccc1 [(Z)-1-phenyl-3-(5-phenyl-2-furanyl)-2-propen-1-one]
7,18.9,CN1CCc2cccc3c2[C@H]1Cc1ccc(O)c(O)c1-3 [APOMORPHINE HYDROCHLORIDE]
8,3.81,CCCCNc1[nH]c(=S)nc2cc(OC)c(OC)cc12 [MLS000520261]
9,16.1,OCCN1CCN(CCCc2c3c(cc4c2CCC4)CCC3)CC1 [MLS000698424]
10,83.6,"COc1cccc2c(SCC(=O)NN=Cc3ccc(O)cc3O)cc(C)nc12 [N'-[(E)-(2-hydroxy-4-oxo-1-cyclohexa-2,5-dienylidene)methyl]-2-[(8-methoxy-2-methyl-4-quinolinyl)thio]acetohydrazide]"
11,18.4,"COc1cc(C=NNC(=O)CN(Cc2ccco2)S(=O)(=O)c2ccccc2)ccc1O [N-(2-furanylmethyl)-N-[2-[[(E)-(3-methoxy-4-oxo-1-cyclohexa-2,5-dienylidene)methyl]hydrazo]-2-oxoethyl]benzenesulfonamide]"
12,2.04,"COc1cccc(CN=Nc2nn3cnnc3c3ccccc23)c1 [N-[1-(3-Methoxy-phenyl)-meth-(E)-ylidene]-N'-[1,2,4]triazolo[3,4-a]phthalazin-6-yl-hydrazine]"
13,1.14,O=C1c2ccccc2-c2onc3ccc(NCCCn4ccnc4)c1c23 [SMR000044769]
14,49.7,Clc1nc2ccccc2cc1CN=Nc1nc2ccccc2[nH]1 [SMR000221568]
15,6.11,Nc1c(C(=O)NCC2CCCO2)sc2nc3c(c(-c4ccco4)c12)CC/C3=C\c1ccco1 (stereo unspecified) [SMR000259502]
16,9.01,Nc1c(C(=O)NC2CC2)sc2nc3c(c(-c4ccco4)c12)CC/C3=C/c1ccco1 [SMR000259554]
17,5.17,Cc1nnc2ccc(-c3cccc(NC(=O)c4ccco4)c3)nn12 [SMR000324305]
